29 compounds from patent US11802111B2, “Cyclobutyl amide monoacylglycerol lipase modulators” (Janssen Pharmaceutica NV, priority 2020, dated 2023) can be followed below.

Sequence of human MGL from HeLa cells (Q99685 whole entry): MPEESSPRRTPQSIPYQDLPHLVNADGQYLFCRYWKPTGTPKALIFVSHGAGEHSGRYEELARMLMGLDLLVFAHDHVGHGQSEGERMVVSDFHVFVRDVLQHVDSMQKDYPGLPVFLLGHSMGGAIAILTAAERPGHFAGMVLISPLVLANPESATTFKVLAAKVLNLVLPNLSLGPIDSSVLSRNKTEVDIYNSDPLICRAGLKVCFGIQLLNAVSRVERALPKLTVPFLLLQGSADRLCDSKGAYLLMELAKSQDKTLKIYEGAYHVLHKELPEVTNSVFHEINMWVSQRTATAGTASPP

The test addresses human MGL from HeLa cells (Homo sapiens (Human), UniProt Q99685). As to the kind of experiment: MGL in vitro activity assay ([glycerol-1,3-3H]-oleoyl glycerol hydrolysis, activated carbon filtration). Type of test: biochemical. As to conditions: 300 nM [Glycerol-1,3-3H]-oleoyl glycerol, one hour. Here is the method: The assay used to measure the in vitro activity of MGL is adapted from the assay used for another serine hydrolase (FAAH) described in Wilson et al., 2003 (A high-throughput-compatible assay for determining the activity of fatty acid amide hydrolase. Wilson S J, Lovenberg T W, Barbier A J. Anal Biochem. 2003 Jul. 15; 318(2):270-5). The assay consists of combining endogenously expressed MGL from HeLa cells with test compounds, adding [glycerol-1,3-^3H]-oleyl glycerol, incubating for one hour, and then measuring the amount of cleaved [1,3-^3H]-glycerol that passes through an activated carbon filter. The amount of cleaved, tritiated glycerol passing through the carbon filter is proportional to the activity of the MGL enzyme in a particular well/test condition.
Standard conditions for this assay combine 300 nM [Glycerol-1,3-^3H]-oleoyl glycerol with human MGL from HeLa cells and test compounds for one hour, after which the reaction is filtered through activated carbon and tritium is measured in the flow through. The test compound concentration in screening mode is 10 μM, while the highest compound concentration in IC50 assays is determined empirically. MGL is the predominant hydrolase in HeLa cells/cell homogenates.
The IC50 is the midpoint of a concentration-inhibition curve. Lower therefore signals higher potency. `C[C@]1(O)C[C@@H](C(=O)N2CC3(CCC(c4ccc5c(c4)CCC5)CC3)C2)C1` [Example 127, (7-(2,3-Dihydro-1H-inden-5-yl)-2-azaspiro[3.5]nonan-2-yl)((1s,3s)-3-hydroxy-3-methylcyclobutyl)methanone] yielded a half-maximal inhibitory concentration (IC50) of 14 nM. This lies in the double-digit nanomolar range.
Take `Cc1ccc(CC2CCC3(C2)CN(C(=O)[C@H]2C[C@@](C)(O)C2)C3)cc1` (mixture of isomers) [Example 169, (rac)-((1s,3s)-3-Hydroxy-3-methylcyclobutyl)(6-(4-methylbenzyl)-2-azaspiro[3.4]octan-2-yl)methanone]: inhibition was half-maximal at 36 nM (IC50). Compared with the last compound, the IC50 is about 2.6-fold higher.
As for `Cc1cc2cccnc2n1CC1CC2(C1)CN(C(=O)[C@H]1C[C@@](C)(O)C1)C2` [Example 287, ((1s,3s)-3-Hydroxy-3-methylcyclobutyl)(6-((2-methyl-1H-pyrrolo[2,3-b]pyridin-1-yl)methyl)-2-azaspiro[3.3]heptan-2-yl)methanone], the IC50 turned out to be 67 nM.
With `CC(C)(C)c1cccc(C2CCC3(CCN(C(=O)[C@H]4C[C@@](C)(O)C4)CC3)C2)c1` (mixture of isomers) [Example 38, (rac)-(2-(3-(tert-Butyl)phenyl)-8-azaspiro[4.5]decan-8-yl)((1s,3s)-3-hydroxy-3-methylcyclobutyl)methanone] the figure was 20 nM; with `C[C@]1(O)C[C@@H](C(=O)N2CC3(CC[C@H](c4cccc(OC(F)(F)F)c4)C3)C2)C1` (stereo in doubt) [Example 42, ((1s,3*R)-3-Hydroxy-3-methylcyclobutyl)((*S)-6-(3-(trifluoromethoxy)phenyl)-2-azaspiro[3.4]octan-2-yl)methanone], 22 nM.
In the case of `Cc1ccccc1CC1CCC2(CC1)CN(C(=O)[C@H]1C[C@@](C)(O)C1)C2` [Example 236, ((1s,3s)-3-Hydroxy-3-methylcyclobutyl)(7-(2-methylbenzyl)-2-azaspiro[3.5]nonan-2-yl)methanone], the IC50 was 49 nM. This IC50 is about 2.2-fold higher than that of the compound before.
The compound `C[C@]1(O)C[C@@H](C(=O)N2CC3(CCC(c4cc5n(n4)CCCC5)C3)C2)C1` (mixture of isomers) [Example 331, (rac)-((1s,3s)-3-Hydroxy-3-methylcyclobutyl)(6-(4,5,6,7-tetrahydropyrazolo[1,5-a]pyridin-2-yl)-2-azaspiro[3.4]octan-2-yl)methanone] returned an IC50 of 1020 nM.
The same measure for `C[C@]1(O)C[C@@H](C(=O)N2CC3(CCC(Cc4ccc(C(F)(F)F)cc4)C3)C2)C1` (mixture of isomers) [Example 171, (rac)-((1s,3s)-3-Hydroxy-3-methylcyclobutyl)(6-(4-(trifluoromethyl)benzyl)-2-azaspiro[3.4]octan-2-yl)methanone]: 6.8 nM.
`CC(C)(C)n1ccc(C2CCC3(CC2)CN(C(=O)[C@H]2C[C@@](C)(O)C2)C3)n1` [Example 379, (7-(1-(tert-Butyl)-1H-pyrazol-3-yl)-2-azaspiro[3.5]nonan-2-yl)((1s,3s)-3-hydroxy-3-methylcyclobutyl)methanone] yielded an IC50 of 56 nM.
The same measure for `CC(C)(C)c1ccnc(C2CCC3(CC2)CN(C(=O)[C@H]2C[C@@](C)(O)C2)C3)n1` [Example 378, (7-(4-(tert-Butyl)pyrimidin-2-yl)-2-azaspiro[3.5]nonan-2-yl)((1s,3s)-3-hydroxy-3-methylcyclobutyl)methanone]: 37 nM; for `Cc1cc(C(F)F)cc(C2CCC3(C2)CN(C(=O)[C@H]2C[C@@](C)(O)C2)C3)c1` (mixture of isomers) [Example 94, (rac)-(6-(3-(Difluoromethyl)-5-methylphenyl)-2-azaspiro[3.4]octan-2-yl)((1s,3s)-3-hydroxy-3-methylcyclobutyl)methanone]: 60 nM; for `Cc1cccc(F)c1C1CCC2(CC1)CN(C(=O)[C@H]1C[C@@](C)(O)C1)C2` [Example 356, (7-(2-Fluoro-6-methylphenyl)-2-azaspiro[3.5]nonan-2-yl)((1s,3s)-3-hydroxy-3-methylcyclobutyl)methanone]: 15 nM.
With `Cc1cccc(C2CCC3(CC2)CN(C(=O)[C@H]2C[C@@](C)(O)C2)C3)c1F` [Example 355, (7-(2-Fluoro-3-methylphenyl)-2-azaspiro[3.5]nonan-2-yl)((1s,3s)-3-hydroxy-3-methylcyclobutyl)methanone] the figure was 39 nM.
With `COc1cc(C2CCC3(CC2)CN(C(=O)[C@H]2C[C@@](C)(O)C2)C3)cc(F)c1C` [Example 370, (7-(3-Fluoro-5-methoxy-4-methylphenyl)-2-azaspiro[3.5]nonan-2-yl)((1s,3s)-3-hydroxy-3-methylcyclobutyl)methanone], half-maximal inhibition (IC50) was put at 11 nM.
`Cc1cc2ccc(CC3CC4(C3)CN(C(=O)[C@H]3C[C@@](C)(O)C3)C4)nc2n1C` [Example 292, (6-((1,2-Dimethyl-1H-pyrrolo[2,3-b]pyridin-6-yl)methyl)-2-azaspiro[3.3]heptan-2-yl)((1s,3s)-3-hydroxy-3-methylcyclobutyl)methanone]: the IC50 worked out at 19 nM.
For `CC(C)c1cccc([C@H]2CCC3(C2)CN(C(=O)[C@H]2C[C@@](C)(O)C2)C3)c1` (stereo in doubt) [Example 48, ((1s,3*R)-3-Hydroxy-3-methylcyclobutyl)((*S)-6-(3-isopropylphenyl)-2-azaspiro[3.4]octan-2-yl)methanone], the IC50 turned out to be 17 nM.
The compound `C[C@]1(O)C[C@@H](C(=O)N2CC3(CC[C@@H](Cc4cccc(C(F)(F)F)c4)C3)C2)C1` (stereo in doubt) [Example 178, ((1s,3*R)-3-Hydroxy-3-methylcyclobutyl)((*S)-6-(3-(trifluoromethyl)benzyl)-2-azaspiro[3.4]octan-2-yl)methanone] displayed an IC50 of 11 nM.
In turn, `COC1(c2cccc(C(C)C)c2)CCC2(CC1)CN(C(=O)[C@H]1C[C@@](C)(O)C1)C2` [Example 266, ((1s,3s)-3-Hydroxy-3-methylcyclobutyl)(7-(3-isopropylphenyl)-7-methoxy-2-azaspiro[3.5]nonan-2-yl)methanone] came in with a 50% inhibitory concentration (IC50) of 1.2 nM. Against the preceding compound, the IC50 is about 9.2-fold lower.
As for `Cc1cc(Cl)ccc1C1CCC2(C1)CN(C(=O)[C@H]1C[C@@](C)(O)C1)C2` (mixture of isomers) [Example 10, (rac)-(6-(4-Chloro-2-methylphenyl)-2-azaspiro[3.4]octan-2-yl)((1s,3s)-3-hydroxy-3-methylcyclobutyl)methanone], the midpoint of inhibition, the IC50, lay at 22 nM.
The same measure for `COc1nc(OC2CCC3(CC2)CN(C(=O)[C@H]2C[C@@](C)(O)C2)C3)ccc1C` [Example 456, ((1s,3s)-3-Hydroxy-3-methylcyclobutyl)(7-((6-methoxy-5-methylpyridin-2-yl)oxy)-2-azaspiro[3.5]nonan-2-yl)methanone]: 19 nM; for `Cc1ccc(OC2CCC3(CC2)CN(C(=O)[C@H]2C[C@@](C)(O)C2)C3)nc1C(F)(F)F` [Example 451, ((1s,3s)-3-Hydroxy-3-methylcyclobutyl)(7-((5-methyl-6-(trifluoromethyl)pyridin-2-yl)oxy)-2-azaspiro[3.5]nonan-2-yl)methanone]: 8.2 nM; for `CC(C)c1cccc(C2CCC3(C2)CN(C(=O)[C@H]2C[C@](O)(C(F)(F)F)C2)C3)c1` (mixture of isomers) [Example 88, (rac)-((1s,3s)-3-Hydroxy-3-(trifluoromethyl)cyclobutyl)(6-(3-isopropylphenyl)-2-azaspiro[3.4]octan-2-yl)methanone]: 59 nM.
Compound `C[C@]1(O)C[C@@H](C(=O)N2CC3(CC(c4ccc(C5CC5)cc4)C3)C2)C1` [Example 5, (6-(4-Cyclopropylphenyl)-2-azaspiro[3.3]heptan-2-yl)((1s,3s)-3-hydroxy-3-methylcyclobutyl)methanone] yielded a half-inhibitory concentration (IC50) of 292 nM.
As to `C[C@]1(O)C[C@@H](C(=O)N2CC3(CC(Cc4cccnc4)C3)C2)C1` [Example 168, ((1s,3s)-3-Hydroxy-3-methylcyclobutyl)(6-(pyridin-3-ylmethyl)-2-azaspiro[3.3]heptan-2-yl)methanone], the midpoint of inhibition, the IC50, lay at 1370 nM.
The same measure for `C[C@]1(O)C[C@@H](C(=O)N2CC3(CC[C@H](c4cccc(C5CC5)c4F)C3)C2)C1` (stereo in doubt) [Example 26, ((*S)-6-(3-Cyclopropyl-2-fluorophenyl)-2-azaspiro[3.4]octan-2-yl)((1s,3*R)-3-hydroxy-3-methylcyclobutyl)methanone]: 28 nM; for `Cc1cccc(CC2CC3(C2)CN(C(=O)[C@H]2C[C@@](C)(O)C2)C3)c1C` [Example 156, (6-(2,3-Dimethylbenzyl)-2-azaspiro[3.3]heptan-2-yl)((1s,3s)-3-hydroxy-3-methylcyclobutyl)methanone]: 11 nM.
With `C[C@]1(O)C[C@@H](C(=O)N2CC3(CCC(c4cnn5ccccc45)CC3)C2)C1` [Example 394, ((1s,3s)-3-Hydroxy-3-methylcyclobutyl)(7-(pyrazolo[1,5-c]pyridin-3-yl)-2-azaspiro[3.5]nonan-2-yl)methanone] the figure was 226 nM.
Take `Cc1ccc(Cl)c(OC2CCC3(CC2)CN(C(=O)[C@H]2C[C@@](C)(O)C2)C3)n1` [Example 435, (7-((3-Chloro-6-methylpyridin-2-yl)oxy)-2-azaspiro[3.5]nonan-2-yl)((1s,3s)-3-hydroxy-3-methylcyclobutyl)methanone]: the IC50 came out at 8.4 nM. Compared with the last compound, the IC50 is about 27-fold lower.
`C[C@]1(O)C[C@@H](C(=O)N2CC3(CCC(Cc4cccc(C5CC5)c4)C3)C2)C1` (mixture of isomers) [Example 201, (rac)-(6-(3-Cyclopropylbenzyl)-2-azaspiro[3.4]octan-2-yl)((1s,3s)-3-hydroxy-3-methylcyclobutyl)methanone]: the concentration for half-maximal inhibition (IC50) was determined as 9.9 nM. This IC50 and that of the compound before are within 1.5-fold of each other.
